Where two headings read alike, the source gives them in different places. Where no end group is shown, it is not given here.

We go through twelve substances from PMC2889824, “Structural Optimization and De Novo Design of Dengue Virus Entry Inhibitory Peptides” (PLoS Neglected Tropical Diseases, 2010).

The subject of series [1] is DENV-2 strain NG-C. Conditions: cited from earlier work; for DENV inhibitory activity of wild type mimic peptides (in words): previous work; for IC50: previously tested wild type peptides denoted with an asterisk, read-out: IC50 (did not achieve 50% inhibition), previously tested wild type peptides. From the text:
Table 1 Sequences and IC50 values of peptides. | column: IC50 (µM) || We had previously identified several E protein regions where peptides mimicking the E protein sequence might function as inhibitors. […] These included a peptide derived from the domain II fusion sequence (DN80, corresponding to amino acids 96–114 in the DENV-2 E protein) and two overlapping peptides derived from the domain II hinge region (DN57 and DN81, corresponding to amino acids 205–223 and 205–232, respectively). Predictions from crystal structures, [14], [15], as well as the previously confir ...

Series [2] deals with DENV-2 binding to LLC-MK2 cells. Description: Virus:cell binding inhibition assay (qRT-PCR). Conditions: virus pre-incubated 1 h 4°C, bound to LLC-MK2 2 h 4°C, washed, compared to control virus without peptide. Type of series: cell-based, dengue virus-2 (DENV-2). How it is done:
Binding inhibition assays were modified from Thaisomboonsuk, et al.}. Briefly, LLC-MK2 monolayers were rinsed in 4°C DMEM containing 0.8% BSA and 25 mM HEPES, pH 7.5. Virus was incubated at 4°C with peptides, control anti-dengue serum, or heparan sulfate in DMEM/BSA/HEPES for one hour before adding to the monolayers for 2 hours at 4°C. Monolayers were rinsed 3 times with cold DMEM/BSA/HEPES media prior to RNA extraction using the Qiagen RNeasy mini kit (Valencia, CA) per manufacturers instructions. Quantitative, real time, reverse transcriptase polymerase chain reaction (qRT-PCR) was conducted utilizing the Roche Lightcycler RNA Master SYBR Green 1 qRT-PCR kit (Basel, Switzerland), using primers Den_F (TTAGAGGAGACCCCTCCC) and Den_R ([…]) from Chutinimitkul et al.}. and the following cycling conditions: 1 h at 61°C, 30 s at 95°C, followed by 45 cycles of: 5 s at 95°C, 20 s at 61°C, and 30 s at 72°C. Cp values were used to estimate infectious units according to a standard curve. Independent assays were repeated three times, in duplicate or triplicate.
In general terms: Quantitative PCR measures a nucleic acid by following its amplification.

Series [3] concerns DENV-2 strain NG-C. The class given is cell-based, dengue virus-2 (DENV-2). Conditions: for maximum inhibition: 24 h; for inhibition of DENV-2 infection (in words): DENV-2 NG-C, any concentration tested. As to the method:
LLC-MK2 target cells were seeded at a density of 1×10^5 cells in each well of a 6-well plate 24 h prior to infection. Approximately 200 focus forming units (FFU) of virus were incubated with or without peptide in serum-free DMEM for 1 h at rt. Virus/peptide or virus/control mixtures were allowed to infect confluent target cell monolayers for 1 h at 37°C, with rocking every 15 m, after which time the medium was aspirated and overlaid with fresh DMEM/10% (v/v) FBS containing 0.85% (w/v) Sea-Plaque Agarose (Cambrex Bio Science, Rockland, ME) without rinsing. Cells with agar overlays were incubated at 4°C for 20 m to set the agar. Infected cells were then incubated at 37°C with 5% CO2 for 5 days. Infected cultures were fixed with 10% formalin overnight at 4°C, permeablized with 70% (v/v) ethanol for 20 m, and rinsed with phosphate buffered saline, pH 7.4 (PBS) prior to immunostaining. Virus foci were detected using a specific mouse mAb from hybridoma E60 (obtained from M. Diamond at Washington University), followed by horseradish peroxidase-conjugated goat anti-mouse immunoglobulin (Pierce, Rockford, IL), and developed using AEC chromogen substrate (Dako, Carpinteria, CA). Results are expressed as the average of at least two independent trials with three replicates each. IC50 values were determined using variable slope sigmoidal dose-response curve fits with GraphPad Prism 4.0 software (LaJolla, CA), except for DN81opt, which was determined graphically due to a lack of data points to produce a reasonable curve fit.

The test system of another series is LLC-MK2 cells. Type of series: cell-based, Macaca mulatta. As to the method: Cytotoxicity of peptides was measured by monitoring mitochondrial reductase activity using the TACS™ MTT cell proliferation assay (R&D Systems, Inc., Minneapolis, MN) according to the manufacturer's instructions. Dilutions of peptides in serum-free DMEM were added to confluent monolayers of LLC-MK2 cells in 96-well plates for 1 h at 37°C, similar to the focus forming inhibition assays, and incubated at 37°C with 5% (v/v) CO2 for 24 h. Absorbance at 560 nm was measured using a Tecan GeniosPro plate reader (Tecan US, Durham, NC).

Series [4] concerns the target T1, purified, recombinant, 80% truncated DENV-2 S1 E protein (Dengue virus type 2, UniProt P12823).
T1 construct: Purified, recombinant, 80% truncated DENV-2 S1 E protein was obtained from Hawaii Biotechnology; purchased Hawaii Biotechnology (Honolulu, HI)
Description: biochemical. Type of series: binding, DENV-2 strain S1. Particulars: for kon: read-out: association rate constant ka; for koff: read-out: dissociation rate constant kd. As to the method: Real time binding assays between peptides and purified DENV-2 S1 E protein were performed using biolayer interferometry on an Octet QK system (Fortebio, Menlo Park, CA). This system monitors interference of light reflected from the surface of a fiber optic sensor to measure the thickness of molecules bound to the sensor surface. Purified, recombinant, 80% truncated DENV-2 S1 E protein was obtained from Hawaii Biotechnology (Honolulu, HI). Peptides were N-terminally biotinylated with a 5∶1 molar ratio of NHS-LC-LC-Biotin (Pierce/ThermoFisher, Rockford, IL) in PBS pH 6.5 at 4°C. Excess biotinylation reagent was removed using Pepclean C-18 spin columns (Pierce/ThermoFisher, Rockford, IL). Biotinylated peptides were coupled to kinetics grade streptavidin high binding biosensors (Fortebio, Menlo Park, CA) at several different concentrations. Sensors coated with peptides were allowed to bind to E protein in PBS with 0.02% (v/v) Tween-20 and 1 mg/ml BSA at several different E protein concentrations. Binding kinetics were calculated using the Octet QK software package, which fit the observed binding curves to a 1∶1 binding model to calculate the association rate constants. E protein was allowed to dissociate by incubation of the sensors in PBS. Dissociation curves were fit to a 1∶1 model to calculate the dissociation rate constants. Binding affinities were calculated as the kinetic dissociation rate constant divided by the kinetic association rate constant.

[5] abbreviates: FFU reduction, DENV-2 NG-C on LLC-MK2 cells, dashed line = tested, 50% inhibition not achieved, read-out: IC50 (did not achieve 50% inhibition).
[6] abbreviates: MTT, confluent LLC-MK2, 24 h post-exposure, any concentration tested, one-way ANOVA, P>0.05.

As to “AWLVHTQWFLDLPLPWLPGADTQGSNWI [DN57wt, previously tested wild type peptide from the DENV-2 E domain II hinge region]”, in the series on DENV-2 strain NG-C [1], the “DENV inhibitory activity of wild type mimic peptides (in words)” value is reported as “did not show substantial DENV inhibitory activity” and the IC50 (commonly the concentration that gives 50% inhibition) is greater than 50 µM.

For heparan sulfate, in series [2], the “virus:cell binding” value was “reduced cell binding”.

For “YPENLEYRVYITPHPGEEHH [1OAN2, de novo designed peptide, E protein region 131–150]”, the IC50 in the series with DENV-2 strain NG-C [3] (setting [5]) was greater than 50 µM.

Substance FWFTLIKTQAKQPARYRRFC [1OAN1] gave a half-inhibitory concentration (IC50) with DENV-2 strain NG-C [3] (-2 strain NG-C, 1 h) of 7 ± 4 µM. In addition, the maximum inhibition in the series on DENV-2 strain NG-C [3] (-2 strain NG-C, 50 µM) came out at 99%. For the same substance, in the series on LLC-MK2 cells (setting [6]), the cellular toxicity result was “not toxic at any concentration tested”. Besides, in series [4], the equilibrium dissociation constant (Kd) (in general, a measure of binding affinity in units of concentration) turned out to be 0.45 µM; the kon was found to be 3900 M⁻¹ s⁻¹; the koff stood at 0.0016 s⁻¹.

Consider “RWRHLKKMQRLQPRNPNWPGQFWVHYNW [DN57opt-scram, scrambled version of DN57opt of identical composition]”, for which, in the series on DENV-2 strain NG-C [3] (setting [5]), the half-maximal inhibitory concentration (IC50) was greater than 50 µM. In the series on DENV-2 strain NG-C [3] (FFU reduction), the “inhibition of DENV-2 infection (in words)” value is “did not display inhibition at any concentration tested”. Further, in the series with LLC-MK2 cells (setting [6]), the cellular toxicity entry is on record as “not toxic at any concentration tested”.

Take “AWLVHRQWFLDLPLPWLPG [DN81wt, previously tested wild type peptide from the domain II hinge region]”: in the series with DENV-2 strain NG-C [1], the “DENV inhibitory activity of wild type mimic peptides (in words)” value was “did not show substantial DENV inhibitory activity” and the IC50 was greater than 50 µM.

Take “QQCFRFPALRKKATYTRFWI [1OAN1-scram, scrambled version of 1OAN1 of identical composition]”: the IC50 in the series on DENV-2 strain NG-C [3] (setting [5]) was greater than 50 µM. Besides, the “inhibition of DENV-2 infection (in words)” value in the series on DENV-2 strain NG-C [3] (FFU reduction) is given as “did not inhibit infection by DENV-2 at any concentration tested”. Besides, the cellular toxicity entry with LLC-MK2 cells (setting [6]) is “not toxic at any concentration tested”.

For “WHTVEPIVTEKDRPVNYEWE [1OAN4, de novo designed peptide, E protein region 351–370]”, in the series on DENV-2 strain NG-C [3] (setting [5]), the 50% inhibitory concentration (IC50) was greater than 50 µM.

RWMVWRHWFHRLRLPYNPGKNKQNQQWP [DN57opt] yielded an IC50 in the series with DENV-2 strain NG-C [3] (-2 strain NG-C, 1 h) of 8 ± 1 µM. For the same substance, the maximum inhibition in the series with DENV-2 strain NG-C [3] (-2 strain NG-C, 20 µM) is listed as 97%. The cellular toxicity result in the series with LLC-MK2 cells is listed as “mildly toxic”. For the same substance, in series [4], the Kd is 1.2 µM, the kon is 800 M⁻¹ s⁻¹ and the koff was 0.00077 s⁻¹.

For the substance MVIVQHQWMQIMRWPWQPE [DN80opt], the 50% inhibitory concentration (IC50) with DENV-2 strain NG-C [3] (setting [5]) is greater than 50 µM.

RQMRAWGQDYQHGGMGYSC [DN81opt] displayed a half-inhibitory concentration (IC50) in the series on DENV-2 strain NG-C [3] (-2 strain NG-C, 1 h) of 36 ± 6 µM. For the same substance, in the series on DENV-2 strain NG-C [3] (-2 strain NG-C, 50 µM), the maximum inhibition is 57%.

With “EWSKHREGRWHTALTGATEI [1OAN3, de novo designed peptide, E protein region 251–270]”, in the series with DENV-2 strain NG-C [3] (setting [5]), the 50% inhibitory concentration (IC50) is greater than 50 µM.
